Reference: the supplement of paper PMC11061612

Columns and labels:
[1] = system: Becker (Low Grade Glioma); test: Bliss excess, mean over the matrix (fraction); higher = more synergy
Method in brief: (§1)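 Cell lines grown in DMEM/F12 or RPMI with 10% FBS were plated in 1536-well plates and held 24 hours at 37°C, 5% CO2 before 72 hours of exposure to two-drug dose matrices, with DMSO typically at 0.2%. CellTiter-Glo 2.0 luminescence gave viability, which was converted to inhibition. Vehicle wells were set to 0 and blank wells to 1. Combination Emax is the second-highest inhibition in the matrix, and Bliss excess is the observed combination effect minus the expected EA + EB − EA·EB, where EA and EB are the single-agent effects.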

ES-2 (Ovarian Carcinoma) [2] = test: as above
Method in brief: as §1

[3] = system: AN3-CA (Endometrial Carcinoma); test: combination Emax (second highest fraction inhibited in the dose matrix, 72 h); higher = more inhibition; extreme values may be limits of the assay
Method in brief: as §1

[4] = system: AsPC-1 (Pancreatic Carcinoma); test: as above
Method in brief: as §1

CHL-1 (Melanoma) = test: as above
Method in brief: as §1

[5] = system: EB-3 (Burkitt's Lymphoma); test: as above
Method in brief: as §1

ES-2 (Ovarian Carcinoma) [6] = test: as above
Method in brief: as §1

[7] = system: HSC-3 (Oral Cavity Carcinoma); test: as above
Method in brief: as §1

[8] = system: JHH-1 (Hepatocellular Carcinoma); test: as above
Method in brief: as §1

[9] = system: LOUCY (T-Lymphoblastic Leukemia); test: as above
Method in brief: as §1

[10] = system: NCI-H1755 (Lung Adenocarcinoma); test: as above
Method in brief: as §1

[11] = system: NCI-H196 (Small Cell Lung Carcinoma); test: as above
Method in brief: as §1

[12] = system: OCI-AML5 (Acute Myeloid Leukemia); test: as above
Method in brief: as §1

[13] = system: OV-90 (Ovarian Carcinoma); test: as above
Method in brief: as §1

[14] = system: OVTOKO (Ovarian Carcinoma); test: as above
Method in brief: as §1

[15] = system: PC-14 (Lung Adenocarcinoma); test: as above
Method in brief: as §1

[16] = system: RMG-I (Ovarian Carcinoma); test: as above
Method in brief: as §1

[17] = system: RPMI-8866 (Chronic Myelogenous Leukemia); test: as above
Method in brief: as §1

[18] = system: SK-MM-2 (Plasma Cell Myeloma); test: as above
Method in brief: as §1

[19] = system: SW684 (Other Solid Carcinomas); test: as above
Method in brief: as §1
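Wherever Bliss excess, mean over the matrix is given: after 72 h of two-drug dosing.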

Structure (SMILES)	Bliss excess [1]	Bliss excess (ES-2 (Ovarian Carcinoma) [2])	combination Emax [3]	combination Emax [4]	combination Emax (CHL-1 (Melanoma))	combination Emax [5]	combination Emax (ES-2 (Ovarian Carcinoma) [6])	combination Emax [7]	combination Emax [8]	combination Emax [9]	combination Emax [10]	combination Emax [11]	combination Emax [12]	combination Emax [13]	combination Emax [14]	combination Emax [15]	combination Emax [16]	combination Emax [17]	combination Emax [18]	combination Emax [19]
Cc1c2c(nn1C)CSCc1cc(n(C)n1)CSc1cc(c3ccccc3c1)OCCCc1c(C(=O)O)n(C)c3c-2c(Cl)ccc13 [AZD5991] + C[C@@H]1COCCN1C2=NC(=NC(=C2)C3(CC3)[S@](=N)(=O)C)C4=C5C=CNC5=NC=C4 [AZD6738] (first compound max 1 µM, 7x7, partner max 10 µM)	0.0152	0.0424	0.823	0.292	0.906	0.604	0.858	0.798	0.686	0.993	0.854	0.367	1	0.51	0.452	0.855	0.544	0.973	0.637	0.428
CS(=O)(=O)CCNCc1ccc(-c2ccc3ncnc(Nc4ccc(OCc5cccc(F)c5)c(Cl)c4)c3c2)o1 [Lapatinib] + C[C@@H](Oc1cc(-c2cnn(C3CCNCC3)c2)cnc1N)c1c(Cl)ccc(F)c1Cl [Crizotinib] (first compound max 10 µM, 7x7, partner max 10 µM)	-0.0387	-0.0565	0.874	0.345	0.757	0.909	0.921	1	0.952	0.822	0.957	0.19	0.988	0.578	0.902	1	0.851	0.884	0.43	0.523
C[C@@H]1COCCN1c1cc(C2([S@](C)(=N)=O)CC2)nc(-c2ccnc3[nH]ccc23)n1 [AZD6738] + O=C(c1cc(Cc2n[nH]c(=O)c3ccccc23)ccc1F)N1CCN(C(=O)C2CC2)CC1 [Olaparib] (first compound max 10 µM, 7x7, partner max 10 µM)	-0.0077	-0.0136	0.577	0.308	0.577	0.617	0.662	0.404	0.458	0.974	0.793	0.347	0.907	0.537	0.398	0.816	0.414	0.982	0.572	0.422
COc1nnc2ccc(N3CCC(c4ccc(OCCN5CCN(C)C(=O)[C@H]5C)cc4)CC3)nn12 [AZD5153] + Cc1c2c(nn1C)CSCc1cc(n(C)n1)CSc1cc(c3ccccc3c1)OCCCc1c(C(=O)O)n(C)c3c-2c(Cl)ccc13 [AZD5991] (first compound max 1 µM, 7x7, partner max 1 µM)	-0.0815	-0.0534	0.544	0.258	0.985	0.822	0.654	0.778	0.906	0.997	0.446	0.307	0.997	0.365	0.531	0.441	0.58	0.857	0.93	0.46
CC(=O)c1c(C)c2cnc(Nc3ccc(N4CCNCC4)cn3)nc2n(C2CCCC2)c1=O [Palbociclib] + Cc1c2c(nn1C)CSCc1cc(n(C)n1)CSc1cc(c3ccccc3c1)OCCCc1c(C(=O)O)n(C)c3c-2c(Cl)ccc13 [AZD5991] (first compound max 10 µM, 7x7, partner max 1 µM)	0.0059	-0.0182	0.886	0.199	0.691	0.435	0.619	0.613	0.289	0.553	0.524	0.126	0.517	0.158	0.48	0.279	0.306	0.725	0.259	0.335
Cc1cc2ncnn2cc1Nc1ncc2c(n1)n(C1CCOCC1)c(=O)n2C [AZD7648] + CN(C)CCCOc1ccc(-c2ccc3ncc4c(c3c2)n(C2CCOCC2)c(=O)n4C)cn1 [AZD0156] (first compound max 10 µM, 7x7, partner max 1 µM)	0.0066	0.029	0.321	0.274	0.253	0.585	0.295	0.174	0.207	0.604	0.362	0.203	0.297	0.216	0.229	0.28	0.431	0.638	0.205	0.268
